Results as given in patent US20260152509A1, “DELIVERY OF THERAPEUTIC ALKALOID COMPOUNDS” (priority 2021, published 2026).
pIC50: −log10 of the molar value. Read-outs that look alike come from different tables or passages of the source.

Columns and labels:
[1] = format: physicochemical; conditions: for Conversion (%) / Notes (stability): 0.5 mM
Protocol: The hydrolysis kinetics was under a certain temperature and measured by LCMS at a certain time interval. The corresponding LCMS chromatograms were recorded and the conversions were calculated. The hydrolysis conditions and the data were summarized in below table. LCMS spectra were obtained using Agilent 1200\G1956A or SHIMADZU LCMS-2020. Standard LCMS conditions were as follows (running time 1.55 minutes):
Acidic condition: Mobile Phase A: 0.0375% TFA in water (v/v). Mobile Phase B: 0.01875% TFA in acetonitrile (v/v); Column: Kinetex EVO C18 30*2.1 mm, 5 μm.
Basic condition: Mobile Phase A: 0.025% NH3·H2O in water (v/v). Mobile Phase B: Acetonitrile; Column: Kinetex EVO C18 2.1×30 mm, 5 μm.
Conversion (%)=peak area 1/(peak area 1+peak area 2)*100%, peak area 1 is the integration of hydrolyzed product, peak area 2 is the integration of starting material.

[2] = Pharmacokinetics of 047 and 016 after single oral 047 in mice; conditions: analyte after single PO 047 75 mg/kg, male C57BL/6 mice
Protocol: Total twelve male mice were used in this study. Animals were administered through oral route with solution formulation of 047 at 75 mg/kg dose. The formulation vehicle used was normal saline. Blood samples (approximately 60 μL) were collected under light isoflurane anesthesia from a set of two mice at 0.25, 0.5, 1, 2, 4 and 8 h. The blood samples were collected at each time point in labeled micro centrifuge tube containing K2EDTA as anticoagulant and PMSF (100 mM; 10 μL/mL of blood) as a stabilizer. Plasma samples were separated by centrifugation of whole blood and stored below −70° C. until bioanalysis. Following blood collection, immediately animals were sacrificed followed by abdominal vena-cava was cut open and whole body was perfused from heart using 10 mL of normal saline. Brain samples were collected from set of two mice at 0.25, 0.5, 1, 2, 4 and 8 h. After isolation, brain samples were rinsed three times in ice cold normal saline (for 5-10 seconds/rinse using ˜10-20 mL normal saline in disposable petri dish for each rinse) and dried on blotting paper. Brain samples were homogenized using ice-cold phosphate buffer saline (pH-7.4) and PMSF (100 mM; 10 μL/mL of blood) as a stabilizer. Brain homogenates were stored below −70±10° C. until analysis. Total homogenate volume was three times of the brain weight.
Plasma and brain samples were quantified by fit-for-purpose LC-MS/MS method.

[3] = target: T1, SERT (Homo sapiens, UniProt P31645); assay: SERT inhibition, Neurotransmitter Transportation Fluorescence assay; format: cell-based; conditions: 30 minutes at 37° C.
T1 construct: expressed in transfected cells
T1 sequence (P31645 whole entry, species assumed): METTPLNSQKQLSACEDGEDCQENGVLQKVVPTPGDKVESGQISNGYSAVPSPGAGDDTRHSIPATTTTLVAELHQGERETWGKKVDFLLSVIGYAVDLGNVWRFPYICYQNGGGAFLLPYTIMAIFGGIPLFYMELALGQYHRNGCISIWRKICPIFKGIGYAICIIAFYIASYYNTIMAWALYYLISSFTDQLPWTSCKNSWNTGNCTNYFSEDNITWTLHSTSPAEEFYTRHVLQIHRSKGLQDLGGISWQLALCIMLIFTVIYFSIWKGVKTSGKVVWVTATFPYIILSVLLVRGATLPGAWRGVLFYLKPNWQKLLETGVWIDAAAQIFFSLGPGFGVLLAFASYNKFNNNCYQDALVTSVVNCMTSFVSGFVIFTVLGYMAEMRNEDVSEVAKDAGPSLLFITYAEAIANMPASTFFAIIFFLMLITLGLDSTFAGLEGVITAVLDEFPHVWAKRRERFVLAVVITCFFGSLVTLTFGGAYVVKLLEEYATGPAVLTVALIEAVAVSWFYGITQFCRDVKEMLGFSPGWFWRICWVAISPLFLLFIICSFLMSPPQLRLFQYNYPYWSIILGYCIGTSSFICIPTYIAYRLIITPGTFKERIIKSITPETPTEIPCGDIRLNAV
Protocol: SERT inhibition was measured using a Neruotransmitter Transportation Fluorescence assay. […] Compounds were prepared by in assay buffer (20 mM HEPES, 0.1% BSA). The compounds were added to the plated cells and incubated for 30 minutes at 37° C. 25 μL of dye solution (Molecular Devices Neurotransmitter Transporter Uptake Assay Kit) was added per well and incubated for 30 minutes at 37° C. The plates were then read on a plate reader.

[4] = pH = 7.4, 25° C., PBS (20 mM), 0-24 h
[5] = pH = 2.0, 25° C., 0.01M HCl, 0-24 h
[6] = pH = 2.0, 37° C., 0.01M HCl, 0-24 h

**Q.** Which “further hydrolysis (in words)” value ([1]; pH 2.0 in 0.01 M HCl to pH 7.4 in 20 mM PBS, 25° C. to 40° C.) does the source give for `COc1ccc(C23C=CC(=O)CC2N(C)CC3)cc1OC` (racemic) [Compound 016, 3a-(3,4-dimethoxyphenyl)-1-methyl-2,3,7,7a-tetrahydroindol-6-one, reference compound] here?
**A.** did not further hydrolyze

**Q.** And the “Conversion (%)” value [1, 4]?
**A.** 0%

**Q.** And the “Notes (stability)” value [1, 4]?
**A.** Stable

**Q.** What about the “Brain concentrations quantifiable up to” value [2] of the same compound?
**A.** up to 4 h

**Q.** Which results are given for `COc1ccc([C@@]23C=CC4(C[C@@H]2N(C)CC3)SCCS4)cc1OC` (stereo in doubt) [Compound 017, 3′a-(3,4-dimethoxyphenyl)-1′-methyl-spiro[1,3-dithiolane-2,6′-2,3,7,7a-tetrahydroindole]]?
**A.** Conversion (%) [1, 5]: 0%; Notes (stability) [1, 5]: Stable; Conversion (%) [1, 6]: 0%; Notes (stability) [1, 6]: Stable

**Q.** For `COc1ccc(C23C=CC4(CC2N(C)CC3)OCCO4)cc1OC` (stereo not drawn) [Compound 015, (3′aR,7′aS)-3′a-(3,4-dimethoxyphenyl)-1′-methyl-spiro[1,3-dioxolane-2,6′-2,3,7,7a-tetrahydroindole]], which “conversion to mesembrenone (in words)” value ([1]; pH 2) is on record?
**A.** converted to mesembrenone

**Q.** Which results are given for `COc1ccc([C@@]23C=CC4(C[C@@H]2N(C)CC3)OCCO4)cc1OC` [Compound 015, (3′aR,7′aS)-3′a-(3,4-dimethoxyphenyl)-1′-methyl-spiro[1,3-dioxolane-2,6′-2,3,7,7a-tetrahydroindole]]?
**A.** Conversion (%) ([1]; pH = 2.0, 25° C., 0.01M HCl, 1 min): 19%; Conversion (%) ([1]; pH = 2.0, 25° C., 0.01M HCl, 10 min): 46%; Conversion (%) ([1]; pH = 2.0, 25° C., 0.01M HCl, 30 min): 66%; Conversion (%) ([1]; pH = 2.0, 25° C., 0.01M HCl, 120 min): 99%

**Q.** With `COc1ccc([C@@]23C=CC4(C[C@@H]2N(C)CC3)OCCO4)cc1OC` [Compound 047, (3′aR,7′aS)-3′a-(3,4-dimethoxyphenyl)-1′-methyl-spiro[1,3-dioxolane-2,6′-2,3,7,7a-tetrahydroindole]] as the compound, how does the pIC50 [3] read?
**A.** 6.24

**Q.** And the “Brain concentrations quantifiable up to” value [2]?
**A.** up to 4 h

**Q.** With `COc1ccc([C@]23C=CC4(C[C@H]2N(C)CC3)OCCO4)cc1OC` [Compound 048, (3′aS,7′aR)-3′a-(3,4-dimethoxyphenyl)-1′-methyl-spiro[1,3-dioxolane-2,6′-2,3,7,7a-tetrahydroindole]] as the compound, how does the pIC50 [3] read?
**A.** 6.03

**Q.** With `COc1ccc([C@@]23C=CC4(C[C@@H]2N(C)CC3)SCCS4)cc1OC` [Compound 049, (3′aR,7′aS)-3′a-(3,4-dimethoxyphenyl)-1′-methyl-spiro[1,3-dithiolane-2,6′-2,3,7,7a-tetrahydroindole]] as the compound, how does the pIC50 [3] read?
**A.** 6.80

**Q.** With `COc1ccc([C@]23C=CC4(C[C@H]2N(C)CC3)SCCS4)cc1OC` [Compound 050, (3′aS,7′aR)-3′a-(3,4-dimethoxyphenyl)-1′-methyl-spiro[1,3-dithiolane-2,6′-2,3,7,7a-tetrahydroindole]] as the compound, how does the pIC50 [3] read?
**A.** 6.39
